# Reference: publication PMC11783601, “Analogue-Sensitive Inhibition of Histone Demethylases Uncovers Member-Specific Function in Ribosomal Protein Synthesis” (Journal of the American Chemical Society, 2025)
# Key:
# KDM8 (JMJD5) = target: T1, KDM8 (JMJD5) (Homo sapiens, UniProt Q8N371); test: MALDI-TOF assay for JMJD5 arginine hydroxylation of peptide; type: biochemical; settings: peptide substrate
# T1 construct: we recombinantly expressed the catalytic domains of 12 wild type dioxygenases; made in house
# KDM4A-F185A = target: T2, KDM4A-F185A (Homo sapiens, UniProt O75164, F185A); test: MALDI-MS end-point demethylase assay on H3K9me3 peptide; type: biochemical; settings: H3K9me3 peptide, 200 µM 2OG, fixed concentration of NOG analogue
# T2 construct: human KDM4A-jmjC domain (catalytic domain of KDM4A); 6xHis (N); host or cells: E. coli BL21 (DE3)
# T2 sequence (O75164 142-308 F185A limits assumed): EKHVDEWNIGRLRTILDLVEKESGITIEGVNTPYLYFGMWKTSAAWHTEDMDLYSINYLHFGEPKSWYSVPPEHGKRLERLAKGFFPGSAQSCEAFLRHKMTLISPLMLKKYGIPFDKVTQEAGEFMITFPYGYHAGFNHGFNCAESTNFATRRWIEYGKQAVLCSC
# Excerpt: To develop an appropriate inhibitor, we selected N-oxalyl glycine (NOG, 2) scaffold because of its structural similarity with 2OG and the ability to inhibit 2OG-utilizing enzymes including KDMs (Figure 1C).[29]−[31] Substituting −CH2– at C3 of 2OG with −NH– in NOG prevents its oxidative decarboxylation by KDMs, making the inhibitor cofactor-competitive. […] We synthesized a panel of eight NOG analogues (3–10), derived from L-amino acids, carrying varied steric substituents at C4, with the reasoning that a bulky substituent at C4 would selectively fit into the expanded pocket of F185A over wild type KDM4A (Figures 2B and S1–S6, Schemes S1 and S2). The inhibitory effect of each compound was determined based on the extent of enzyme-catalyzed demethylation of a canonical peptide substrate corresponding to the N-terminus of histone 3 carrying trimethylated lysine at position 9 (H3K9me3). […] Such orthogonal inhibition of the engineered demethylase constitutes a powerful chemical probe to study the functions of a specific member of an enzyme family without issues of off-target activity. […]
# assay (Biorad) kit with BSA concentrations as a standard. […]
# 8. Demethylase activity of the wild type and mutant KDM4 proteins on peptide substrate To monitor enzymatic activity, a demethylase activity assay was optimized and then observed through MALDI-TOF.7 Each histone demethylase assay sample included either wild type or mutant enzyme (10µM KDM4A, 7.5µM KDM4C, 10µM KDM4D, or 1µM KDM4E), 10 µM peptide, 200 µM 2OG, 50 mM Tris pH 8, […], 0-200µM NOG analogue, and 2 mM L-ascorbic acid with a total assay volume of 10 µL. Fe(II) supplement and L-ascorbic acid […]
# Lastly, the 2OG and peptide were […]
# positive mode and analyzed on Bruker FlexAnalysis software. The percent demethylated peptide […]
# the multiple demethylation events on the peptide. […]
# varying concentrations (0-10 µM). […] The fluorescence intensity was measured with excitation = 340 nm and emission = 490 nm on a TECAN Infinite M1000Pro. […]
# The set up and analysis for IC50 of L-Leu NOG against KDM4A F185A enzyme was similar to that described in the coupled fluorescence assay section, but adjusted to function as an end point assay. […]
# and varying concentration of compounds (NOGs 6, 9 and 10) and a substrate cocktail (200 µM 2OG and 60 µM H3K9me3 peptide). Different concentrations of NOG 6 were measured at one time point ranging for 1-5 hours. For 9 and 10, the same set-up remained, but enzymatic activity was measured via MALDI-TOF analysis, and relative activity and inhibition was calculated for different NOG concentrations as described above. […]
# and analyzed on Bruker FlexAnalysis software. The percent demethylated peptide was calculated by first multiplying the K27me1 peak by 2 and the K27me0 peak by 3 to account for the multiple
# T1 sequence (Q8N371 271-416 limits assumed): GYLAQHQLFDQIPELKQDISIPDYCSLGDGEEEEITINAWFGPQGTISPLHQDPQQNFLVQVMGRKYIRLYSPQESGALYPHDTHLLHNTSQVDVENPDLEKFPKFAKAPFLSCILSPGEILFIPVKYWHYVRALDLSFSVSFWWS
smiles,measurement,setting,value
"CC(C)CC(NC(=O)C(=O)O)C(=O)O (centres unmarked) [compound 6, N-oxalyl leucine]",inhibition of JMJD5,KDM8 (JMJD5),No inhibition
same,inhibition of F185A mutant demethylase activity (MALDI-MS),KDM4A-F185A,complete inhibition
